Laboratory results from patent publication US20250090510A1, “eIF4G1-eIF1 INHIBITORS AND USE THEREOF” (YEDA RESEARCH AND DEVELOPMENT CO. LTD., priority 2022, published 2025).
Where two headings read alike, the source gives them in different places.

Columns and labels:
[1] = tested on: leaky scanning from cap-proximal AUG in HEK293T cells; test: Leaky scanning GFP reporter with cap-proximal upstream AUG, western blot; assay type: cell-based, human; conditions: upstream AUG with 16 nt 5′UTR
From the text: FIGS. 1A-G: Identification and initial characterization of eIF1-eIF4G1 inhibitors using a high-throughput drug screen (HTS). (1A) A flowchart describing the steps of the recombinant eIF1-eIF4G1 split-RL HTS. (1B) Selection of drugs that inhibit leaky scanning. HEK293T cells were transfected with a short 5′UTR bearing GFP reporter gene described on the top, treated with the indicated HTS hits, and then analyzed by western blot with GFP antibody. US and DS denote upstream and downstream AUG initiation sites, respectively. (1C) A graph showing the change in the ratio of the upstream and downstream AUG following treatment with the indicated drugs. (1D) The chemical structure of the eIF1-eIF4G1 inhibitors, i14G1-10 and i14G1-12. (1E) His-tagged eIF4G1 and His-tagged eIF1 were expressed in BL21 bacteria and purified using nickel NTA beads. Purified His-tagged eIF4G1 and His-tagged eIF1 were incubated with the indicated doses of either i14G1-10 (0-256 μM) or i14G1-12 (0-256 μM) for 5 minutes, followed by fluorescence measurement. For eIF4G1 excitation was at 280 nm and emission was at 350 nm. For eIF1 excitation was at 274 nm and emission was at 304 nm. The data shown represent three independent replicates. IC50 was calculated using Graphpad prism 9. (1F-1G) Western blots of GST pull down. […]
To address the functional significance of the temporal eIF1-eIF4G1 interaction, the inventors set out to develop pharmacological tools against this complex. To this end, the split-Renilla luciferase (RL) complementation assay previously found to be an efficient readout of eIF1 and eIF4G1 interaction in mammalian cells and a highly sensitive and powerful approach for the identification of protein-protein inhibitors was used. […] As knockdown of either eIF1 or eIF4G1 and interference with eIF1-eIF4G1 interaction led to the arrest of leaky scanning from cap-proximal AUG, the selected compounds were analyzed for their effect on initiation from cap-proximal AUG. […]

[2] = tested on: HEK293T cells with eIF4G1 knockdown; test: Puromycin labeling after control or eIF4G1 siRNA; assay type: cell-based, human; conditions: for IC50: Homo sapiens, HEK-293T, 48 h, 3 h treatment, read-out: IC-50, puromycin labeling
Protocol: FIGS. 3A-F: i14G1-10 and i14G1-12 inhibit mRNA translation and sensitize cell survival of eIF4G1 and eIF1 depleted cells. (3A) In-vitro translation using rabbit reticulocyte lysate which was pre-incubated with different concentrations of i14G1-10 or i14G1-12 for 10 minutes followed by the addition of capped firefly luciferase mRNA. After 90 minutes at 30° C., the luminescence signal was measured and the IC50 was calculated. The data represents mean±SEM of 6 independent repeats. (3B) HEK293T cells were treated with DMSO (vehicle control), and sub-cytotoxic concentrations of i14G1-10 (20 μM) and i14G1-12 (10 μM) for 3h. Cell lysates were then subjected to sucrose gradient sedimentation to obtain polysome profiles. (3C) HEK293T cells were treated with the indicated concentrations of i14G1-10 and i14G-12 for 3 h, followed by the addition of puromycin (10 μg/ml) for 5 minutes, after which cells were lysed and analyzed by western blot using an anti-puromycin antibody and anti-GAPDH antibody that serves as a loading control. The graph represents the mean±SEM chemiluminescence signal intensity of puromycin labeling normalized to GAPDH of 3 independent experiments. The calculated IC-50 is shown. (3D) HEK293T cells were transfected with either control or eIF4G1 siRNA in the absence or presence of eIF4G1 expression plasmid. As the eIF4G1 siRNA pool is directed against the 3′UTR, which is absent from the eIF4G1 expression plasmid, the exogenous eIF4G1 is resistant to the siRNA. 48 h after transfection, cells were treated with the indicated concentrations of i14G1-10 and i14G-12 for 3 h, followed by a 5 minutes puromycin pulse as described in 3C. The graph represents the mean±SEM chemiluminescence signal intensity of puromycin labeling normalized to GAPDH of 3 independent experiments. The calculated IC-50 is shown. (3E) The graphs represent cell viability of the indicated cell lines in the presence of increasing concentrations of i14G1-10 and i14G1, analyzed by Luminescent Cell Viability Assay. […]

Compound: O=C(/C=C/Sc1ccc(C(F)(F)F)cn1)c1ccccc1 [i14G1-10]
- upstream to downstream AUG ratio (leaky scanning) [1]: selectively changed the upstream to downstream ratio by inhibiting leaky scanning from the cap-proximal AUG
- inhibition of translation upon depletion of eIF4G1 ([2]; eIF4G1 siRNA vs control siRNA): enhanced

Compound: Cn1ccnc1S/C(=C/C=C(C#N)C#N)c1ccc(Cl)cc1 [i14G1-12]
- upstream to downstream AUG ratio (leaky scanning) [1]: selectively changed the upstream to downstream ratio by inhibiting leaky scanning from the cap-proximal AUG
- IC50 ([2]; control siRNA): 5.65 µM
- IC50 ([2]; eIF4G1 siRNA knockdown): 80 µM
